Experimental data from ChEMBL document CHEMBL2424637, “Nucleophilic substitution reactions of 1,4-naphthoquinone and biologic properties of novel S-, S,S-, N-, and N,S-substituted 1,4-naphthoquinone derivatives” (2013).
Converted amounts (≈) assume the structure as drawn. The source made the active and inactive calls. The rule behind the calls is not given here.

Tests used:
Assay type in all cases: functional
[1] = test system: Staphylococcus aureus; experiment: Antibacterial activity against Staphylococcus aureus 209-P after 24 to 72 hrs by serial dilution technique
[2] = test system: Aspergillus niger; experiment: Antifungal activity against Aspergillus niger F-1119 at 0.5% after 48 to 72 hrs by agar disk diffusion technique
[3] = test system: Yamadazyma tenuis; experiment: Antifungal activity against Candida tenuis VKM Y-70 after 24 to 72 hrs by serial dilution technique
[4] = test system: Staphylococcus aureus; experiment: Antibacterial activity against Staphylococcus aureus 209-P at 0.1% after 24 hrs by agar disk diffusion technique
[5] = test system: Staphylococcus aureus; experiment: Antibacterial activity against Staphylococcus aureus 209-P at 0.5% after 24 hrs by agar disk diffusion technique
[6] = test system: Aspergillus niger; experiment: Antifungal activity against Aspergillus niger F-1119 at 0.1% after 48 to 72 hrs by agar disk diffusion technique
[7] = test system: Yamadazyma tenuis; experiment: Antifungal activity against Candida tenuis VKM Y-70 at 0.1% after 48 to 72 hrs by agar disk diffusion technique
[8] = test system: Escherichia coli; experiment: Antibacterial activity against Escherichia coli B-906 at 0.1% after 24 hrs by agar disk diffusion technique
[9] = test system: Mycobacterium; experiment: Antibacterial activity against Mycobacterium luteum B-917 at 0.1% after 24 hrs by agar disk diffusion technique
[10] = test system: Mycobacterium; experiment: Antibacterial activity against Mycobacterium luteum B-917 after 24 to 72 hrs by serial dilution technique
[11] = test system: Aspergillus niger; experiment: Antifungal activity against Aspergillus niger F-1119 after 24 to 72 hrs by serial dilution technique
[12] = test system: Mycobacterium; experiment: Antibacterial activity against Mycobacterium luteum B-917 at 0.5% after 24 hrs by agar disk diffusion technique
[13] = test system: Escherichia coli; experiment: Antibacterial activity against Escherichia coli B-906 after 24 to 72 hrs by serial dilution technique
[14] = test system: Escherichia coli; experiment: Antibacterial activity against Escherichia coli B-906 at 0.5% after 24 hrs by agar disk diffusion technique
[15] = test system: Yamadazyma tenuis; experiment: Antifungal activity against Candida tenuis VKM Y-70 at 0.5% after 48 to 72 hrs by agar disk diffusion technique

Row | SMILES | MIC [1] | MIC [3] | MIC [10] | MIC [11] | MIC [13] | diameter of the inhibition zone (DIZ) [2] | diameter of the inhibition zone (DIZ) [4] | diameter of the inhibition zone (DIZ) [5] | diameter of the inhibition zone (DIZ) [6] | diameter of the inhibition zone (DIZ) [7] | diameter of the inhibition zone (DIZ) [8] | diameter of the inhibition zone (DIZ) [9] | diameter of the inhibition zone (DIZ) [12] | diameter of the inhibition zone (DIZ) [14] | diameter of the inhibition zone (DIZ) [15]
1 | O=C1C(Sc2c(Cl)c(Cl)c(Cl)c(Cl)c2Cl)=C(N2CCCCC2)C(=O)c2ccccc21 | inactive | inactive | inactive | inactive | inactive | 0 mm | 0 mm | 0 mm | 0 mm | 0 mm | 0 mm | 0 mm | 0 mm | 0 mm | 0 mm
2 | O=C1C(Cl)=C(N2CCN(CCO)CC2)C(=O)c2ccccc21 | 62.5 µg/mL (≈ 195 µM) | 125 µg/mL (≈ 390 µM) | 31.2 µg/mL (≈ 97.3 µM) | 125 µg/mL (≈ 390 µM) | 500 µg/mL (≈ 1560 µM) | 0 mm | 11.4 mm | 20.7 mm | 0 mm | 0 mm | 6 mm | 16 mm | 28.7 mm | 8 mm | 0 mm
3 | O=C1C(Cl)=C(N2CCN(c3ccc([N+](=O)[O-])cc3)CC2)C(=O)c2ccccc21 | inactive | 31.2 µg/mL (≈ 78.4 µM) | inactive | 31.2 µg/mL (≈ 78.4 µM) | inactive | 13.7 mm | 0 mm | 0 mm | 0 mm | 8.5 mm | 0 mm | 0 mm | 0 mm | 0 mm | 15.7 mm

Continued by falling MIC [11], values first:

Row | MIC [1] | MIC [3] | MIC [10] | MIC [11] | MIC [13] | SMILES | diameter of the inhibition zone (DIZ) [2] | diameter of the inhibition zone (DIZ) [4] | diameter of the inhibition zone (DIZ) [5] | diameter of the inhibition zone (DIZ) [6] | diameter of the inhibition zone (DIZ) [7] | diameter of the inhibition zone (DIZ) [8] | diameter of the inhibition zone (DIZ) [9] | diameter of the inhibition zone (DIZ) [12] | diameter of the inhibition zone (DIZ) [14] | diameter of the inhibition zone (DIZ) [15]
4 | inactive | inactive | 500 µg/mL (≈ 949 µM) | 500 µg/mL (≈ 949 µM) | inactive | CC1CCC(C(C)(C)SC2=C(SC(C)(C)C3CCC(C)CC3=O)C(=O)c3ccccc3C2=O)C(=O)C1 (stereo not given) | 6 mm | 0 mm | 0 mm | 0 mm | 0 mm | 0 mm | 0 mm | 0 mm | 0 mm | 7.4 mm
5 | inactive | 62.5 µg/mL (≈ 135 µM) | inactive | 250 µg/mL (≈ 540 µM) | inactive | COc1ccc(CSC2=C(SCc3ccc(OC)cc3)C(=O)c3ccccc3C2=O)cc1 | 7.4 mm | 0 mm | 0 mm | 0 mm | 7.4 mm | 0 mm | 0 mm | 7 mm | 0 mm | 11.7 mm
